How the values were obtained:
[1] = cited from earlier work
[2] = tested on: iPSC generation from fibroblasts; conditions: without c-Myc and Klf4; cited from earlier work
[3] = tested on: spleen cells; experiment: MSAIC inhibition assay with GsMTX4, PI gene messages by real time PCR; format: cell-based, mouse
Method: (§1) C57BL/6 male mice (4-6 weeks old) were purchased from Jackson Laboratory. Bone marrow cells and spleen cells were obtained from 4-6-week-old male C57BL/6 mice. Cells in single cell suspension were red cell-depleted before use. Bone marrow stromal cells were cultured and passaged in T75 culture flask as it was described [Torino et al., Bio-protocol 4: e1031 (2014)]. The embryonic fibroblast was prepared from 13-day fetus of C57BL/6 as described previously [Qiu et al., Bio-protocol 6: e1859 (2016)]. Cells used for the reprogramming were those cultured for 2 to 4 passage periods.
Cells were cultured in 6 well plates (10^7 cells/well) in triplicate per group. GsMTX4 dissolved in PBS was added to the concentration 5 μM in the experimental group. Sixteen hours later, cells were harvested by scraper for spleen cells and bone marrow cells, pelleted for total RNA-extraction with RNeasy (Qiagen) or Trizol (Invitrogen). For EF cells and BM stromal cells, cell culture medium was drained and directly resuspended to the cell lysis buffer in the culture wells. Extracted RNAs were subjected to cDNA synthesis (Applied Bioscience) and analyzed for the messages specific for mouse PI genes and control genes by real time PCR thereto cycler (Bio-Rad, CFX384). Primers used were: Oct4 (5′: […] (SEQ ID NO:5), 3′: […] (SEQ ID NO:6), Sox2 (5′: […] (SEQ ID NO:7), 3′: […] (SEQ ID NO:8), Nanog (5′: […] ([…]), 3′: […] (SEQ ID NO:10), CFBP/α (5′: […] (SEQ ID NO:11), 3′: […] (SEQ ID NO:12), c-Myc (5′: […] (SEQ ID NO:13), 3′: TTATGCACCAGAGTTTCG (SEQ ID NO:14), RUNX1 (5′: […] (SEQ ID NO:15), 3′: […] (SEQ ID NO:16), PU1 (5′: […] (SEQ ID NO:17), 3′: […] (SEQ ID NO:18), IRF8 (5′: […] (SEQ ID NO:19), 3′: […] (SEQ ID NO:20), FOXP1 (5′: […] (SEQ ID NO:21), 3′: […] (SEQ ID NO:22), KLF4 (5′: […] (SEQ ID NO:23), 3′: […] (SEQ ID NO:24), Actin (5′: […] (SEQ ID NO:25), 3′: […] (SEQ ID NO:26), GAPDH 5′: […] (SEQ ID NO:27), 3′: […] (SEQ ID NO:28). […]
Spleen cells were 37° C.-treated with MβCD before the in vitro culture with GsMTX4 as described in FIG. 1. ND: not detected.

[4] = tested on: EF cells; experiment: RT-PCR assay for the expression of PI genes in the reprogramming cultures of EF cells; format: cell-based, mouse
Method: Cells were suspended in DMEM supplemented with 5 mM MβCD at the concentration of 2×10^6/ml in 15 ml centrifuge tube. Cell suspension was incubated for 30 min at 37° C. with every 5 min gentle agitations. Washed once with 37° C. warmed DMEM/F12 and resuspended in small volume complete medium (30 μl/2×10^6 cells) [DMEM/F12 (Corning), 20% knockout serum replacement (Gibco), 1% nonessential amino acids (Gibco), 5×10^−5M 2-Mercaptethanol]. To initiate reprogramming culture on hydrogel, petri dish was added with 2.5 ml complete medium, then 30 μl of cell suspension was loaded on the hydrogel. Multiple dishes were housed in a 15 cm diameter petri dish with a water filled un-lid 6 cm petri dish. Cells on the gel and on the dish-bottom surface were monitored daily and the remarkable phenotype cells were recorded with EVOS cell monitoring system (Thermofisher). Various phenotype cells were characterized by the assays for the markers specific for the cell lineages (e.g., Oil red 0 for the adipocytes and alizarin for calcium deposited cells) as commonly available methods.
Cells derived from the MβCD-treated and hydrogel-exposed culture in petri dish were subjected to the extraction of total RNA by Trizol. cDNAs were prepared as described above and the regular PCR was performed (35 cycle) using PCR master mix (Biotool) and the primers listed above for the real time PCR assays. The PCR products were resolved using 1.5% agarose gel, Ethidium Bromide-stained and the results were acquired by Gel Documentation system (Bio-Rad).
EF cells were MβCD-treated and cultured in the hydrogel-casted petri dishes for 7 days before RNA extraction. The stiffness of the hydrogel was listed on the top of each lane. Total RNAs from spheres and dish-adhered cells were analyzed for the expression of the PI genes by RT-PCR. PCR-amplified fragments were dissolved by 1.5% agarose gel and stained by Ethidium Bromide. […]
EF cells were MβCD-treated and cultured in the petri dishes. […] The message for each PI gene was analyzed as described in FIG. 1 and shown in B.

[5] = tested on: EF cells; experiment: Reprogramming and differentiation culture of EF cells, microscopy and staining; format: cell-based, mouse
Method: (§2) Tissue culture plates with defined elasticity surface (0.2, 4, 50 kpa) were purchased from Matrigen. To cast polyacrylamide gel in petri-dishes, 3.5 cm petri-dish was used. Each dish was loaded with 330 μL of polyacrylamide gel cocktail and promptly the size-matched drop lid (polypropylene) was placed on the top (FIG. 30). Three different elasticities of the polyacrylamide gel were prepared in the study. The ratio of [acrylamide (40%): bis-acrylamide (2%): water] was determined according from the published data [Tse and Engler, Curr. Protoc. Cell Biol. Chapt. 10 Unit 10.16 (2010)]. Those were (75:112.5:812.5) for 1.7 kpa, (100:150:750) for 3.2 kpa and (250:30:720) for 7.4 kpa. The slice of the 50 ml conical centrifuge tube caps were used for the drop caps (arrow-pointed in FIG. 30).
Ninety minutes later drop lids were carefully removed and the gels in the dishes were washed 5 times with 3 ml of sterile water. Each aspiration of the water from the dish was gently performed with 1 ml micro pipettor. During the washing, casted acrylamide gel come off the bottom. […]
Cells were suspended in DMEM supplemented with 5 mM MβCD at the concentration of 2×10^6/ml in 15 ml centrifuge tube. […] Cells on the gel and on the dish-bottom surface were monitored daily and the remarkable phenotype cells were recorded with EVOS cell monitoring system (Thermofisher). […]

[6] = tested on: Human PBMC; experiment: Nuclear reprogramming of human peripheral blood mononuclear cells; format: cell-based; conditions: 5 mM MβCD twice 20 min, then soft polyacrylamide gel culture
Description: Human PBMC is an attractive source of somatic cells for reprogramming to stem cells by the available iPSC technology. The sampling of the peripheral blood is a common practice in the medicine and possible to obtain at the individual specific fashion. The purification of the PBMC is also a regular method by Ficol gradient centrifugation. […] 27, 10-(2018), U.S. Pat. No. 9,447,382B2]. To investigate if the methods of the current invention can apply to reprogram human PBMC into the stem cell-like cells, and also differentiate into the de novo phenotypes in vitro, experiments were conducted in which cell were treated with MβCD and then cultured on the soft polyacrylamide gel as described infula.
Human peripheral blood was corrected into the heparinized tube from left forearm vein. The blood mononuclear cells were separated using the Ficoll-Hypaque technique (density, 1.077; Pharmacia Biotech, Uppsala, Sweden). Cells were twice repeatedly 37° C. incubated for 20 min with 5 mM MβCD in DMEM, pelleted by centrifugation at 900 g at room temperature. Washed once with 37° C. warmed DMEM/F12 and resuspended in small volume complete medium (30 μl/2×10^6 cells) [DMEM/F12 (Corning), 20% knockout serum replacement (Gibco), 1% nonessential amino acids (Gibco), 5×10^−5M 2-Mercaptethanol]. Cells in the culture petri-dishes were monitored daily by microscopy and novel phenotype cells were recorded. […]

[7] = tested on: bone marrow stroma cell line; experiment: MSAIC inhibition assay with GsMTX4, PI gene messages by real time PCR; format: cell-based, mouse; conditions: GsMTX4, O/N culture
Method: as §1
(§3) Cells were cultured in 6 well plates (10^7 cells/well) in triplicate per group. GsMTX4 dissolved in PBS was added to the concentration 5 μM in the experimental group. Sixteen hours later, cells were harvested by scraper for spleen cells and bone marrow cells, pelleted for total RNA-extraction with RNeasy (Qiagen) or Trizol (Invitrogen). For EF cells and BM stromal cells, cell culture medium was drained and directly resuspended to the cell lysis buffer in the culture wells. Extracted RNAs were subjected to cDNA synthesis (Applied Bioscience) and analyzed for the messages specific for mouse PI genes and control genes by real time PCR thereto cycler (Bio-Rad, CFX384). […]

[8] = tested on: bone marrow cells; experiment: MSAIC inhibition assay with GsMTX4 / matrix stiffness culture, PI gene messages by real time PCR; format: cell-based, mouse; conditions: 5 μM GsMTX4, 16 hours
Method: as §1
Cells were cultured in 6 well plates (10^7 cells/well) in triplicate per group. GsMTX4 dissolved in PBS was added to the concentration 5 μM in the experimental group. Sixteen hours later, cells were harvested by scraper for spleen cells and bone marrow cells, pelleted for total RNA-extraction with RNeasy (Qiagen) or Trizol (Invitrogen). For EF cells and BM stromal cells, cell culture medium was drained and directly resuspended to the cell lysis buffer in the culture wells. Extracted RNAs were subjected to cDNA synthesis (Applied Bioscience) and analyzed for the messages specific for mouse PI genes and control genes by real time PCR thereto cycler (Bio-Rad, CFX384). Primers used were: Oct4 (5′: […] (SEQ ID NO:5), 3′: […] (SEQ ID NO:6), Sox2 (5′: […] (SEQ ID NO:7), 3′: […] (SEQ ID NO:8), Nanog (5′: […] ([…]), 3′: […] (SEQ ID NO:10), CFBP/α (5′: […] (SEQ ID NO:11), 3′: […] (SEQ ID NO:12), c-Myc (5′: […] (SEQ ID NO:13), 3′: TTATGCACCAGAGTTTCG (SEQ ID NO:14), RUNX1 (5′: […] (SEQ ID NO:15), 3′: […] (SEQ ID NO:16), PU1 (5′: […] (SEQ ID NO:17), 3′: […] (SEQ ID NO:18), IRF8 (5′: […] (SEQ ID NO:19), 3′: […] (SEQ ID NO:20), FOXP1 (5′: […] (SEQ ID NO:21), 3′: […] (SEQ ID NO:22), KLF4 (5′: […] (SEQ ID NO:23), 3′: […] (SEQ ID NO:24), Actin (5′: […] (SEQ ID NO:25), 3′: […] (SEQ ID NO:26), GAPDH 5′: […] (SEQ ID NO:27), 3′: […] (SEQ ID NO:28). The value of each Cq (Ct) were applied to the formula by which the message level of each specific gene (shown by the index value) was estimated in comparison to that of Actin or GAPDH housekeeping genes.
as §2
In experiments, mouse bone marrow cells were in vitro 37° C. cultured 16 hours in the presence of 5 μM GsMTX4. Cells were then assayed for the PI genes' messages as listed in the left of the FIG. 1. […] The presence of GsMTX4 in the culture was expected to prevent cells from sensing the strong stretch stress by MSAICs. Strikingly, the cells cultured in the presence of GsMTX4 expressed greater than 100 times of Oct4 message compared with the control cells (FIG. 1). […] 10(1): e1004079 (2014); North et al., Stem Cells. 22:158 (2004)].
The fresh bone marrow cells were cultured for 16 hours in 6 well plates with GsMTX4 (5 μM) in DMEM supplemented with 10% FBS. The messages specific for the genes listed in the left were real time PCR-characterized and presented as the relative index in comparison with the value of β-actin message. […]

[9] = tested on: EF cells; experiment: MSAIC inhibition assay with GsMTX4, PI gene messages by real time PCR; format: cell-based, mouse
Method: as §1, §3

[10] = tested on: PIFs; conditions: in vitro culture; cited from earlier work

For `Cc1c(C(=O)Nc2cccc(C(F)(F)F)c2)cc(-c2ccccc2)n1CCCN1CCOCC1` [HC 067047], the solubility [1] is given as “only soluble in DMSO or alcohols”.

In the case of `CCCC(CCC)C(=O)O` [Valproic acid], the “increase of reprogramming efficiency over the four transcription factor method” value [2] is listed as 100 fold.

For methyl-β-cyclodextrin [MβCD], the “PI genes expression in response to GsMTX4 after MβCD treatment” value ([3]; 37° C. MβCD treatment, then GsMTX4 O/N culture) was “activation of PI genes”, the “time to detection of un-spliced PI gene messages after cholesterol depletion” value ([4]; MβCD-treated EF cells attached to dish bottom) was ≤ 24 h and the “presence of spliced PI gene messages” value ([4]; MβCD-treated EF cells attached to dish bottom, day 1, 4, 7) was “present only in the cells cultured 7 days”. The “messages for Oct4, Nanog, and Sox2 at predicted sizes in bottom-adhered cells” value ([4]; MβCD-treated, hydrogel-casted petri dishes, 7 days) was “significant messages”, the “efficiency of generating stem cell-like / differentiated cells” value ([5]; EF cells) was “greater efficiency than that of the hydrogel only” and the “sphere formation on hydrogel” value ([5]; MβCD, then low pascal hydrogels (1.7, 3.2, 7.4 kpa), O/N culture) was “formation of various size spheres were observed”. The “appearance of novel-phenotype cells” value [6] was “observed novel-phenotype cells”.

With GsMTX4 the PI genes expression [7] was “resembled to that of fresh bone marrow cells”, the PI genes expression ([3]; GsMTX4, 16 hours) was “consistently repressed” and the PI genes expression ([3]; GsMTX4, day 3) was “activation of the PI genes was significantly observed”. The C/EBPα expression [8] was “activated prominently”, the “FOXP1 (non-PI gene) expression change” value [8] was “the expression change was small” and the “IRF8 (non-PI gene) expression change” value [8] was “the expression change was small”. The RUNX1 expression [8] was “activated prominently”, the Sox2 expression [8] was “activated prominently” and the “Oct4 message compared with the control cells” value ([8]; 37° C., polystyrene surface) was “greater than 100 times”. The PI genes expression ([9]; GsMTX4, 16 hours) was “responded like that observed in the study of fresh spleen cells”, the PI genes expression ([9]; GsMTX4, day 3) was “found activated” and the solubility [1] was “water soluble”.

In the case of `C[S+](C)[O-]` [DMSO], the “expression of PIFs” value [10] is given as “repressed”.
